Assay results published in patent US20090275610A1, “TRICYCLIC OPIOID MODULATORS” (priority 2005, published 2009).
Like-named read-outs stand apart in the source and are kept apart here.

How the values were obtained:
mu opioid receptor = biological target: T1, mu opioid receptor (Rattus norvegicus, UniProt P33535); test: Rat brain mu opioid receptor binding assay; conditions: rat forebrain membranes, [3H]DAMGO, 25° C., 2.5 h
T1 construct: the forebrains were homogenized in Tris buffer in a Teflon®-glass homogenizer; from tissue; host or cells: forebrain of male Wistar rats (particulate membrane preparation)
Experimental: Rat Brain Mu Opioid Receptor Binding Assay
(§1) Procedure: Male, Wistar rats (150-250 g, VAF, Charles River, Kingston, N.Y.) were killed by CO2, and their brains removed and placed immediately in ice cold Tris HCl buffer (50 mM, pH 7.4). The forebrains were separated from the remainder of the brain by a coronal transection, beginning dorsally at the colliculi and passing ventrally through the midbrain-pontine junction. After dissection, the forebrains were homogenized in Tris buffer in a Teflon®-glass homogenizer. The homogenate was diluted to a concentration of 1 g of forebrain tissue per 80 mL Tris and centrifuged at 39,000×g for 10 min. The pellet was resuspended in the same volume of Tris buffer containing 5 mM MgCl2 with several brief pulses from a Polytron homogenizer. This particulate preparation was used for the delta opioid binding assays.
(§2) Analysis: The data from the scintillation counter were used to calculate either the % inhibition compared to control binding (when only a single concentration of test compound was evaluated) or a Ki value (when a range of concentrations tested). Percent inhibition was calculated as: [(total dpm−test compound dpm)/(total dpm−nonspecific dpm)]*100. Kd and Ki values were calculated using GraphPad PRISM data analysis program.

[1] = biological target: T2, delta opioid receptor (NG108-15 cell membranes) (Mus musculus, UniProt P32300); test: [35S]GTPγS binding assay in NG108-15 cell membranes (delta opioid); type: biochemical
T2 construct: NG108-15 cell membranes were purchased from Applied Cell Sciences (Rockville, Md.); host or cells: NG108-15 cell membranes (purchased)
Experimental: Functional Assay: [^35S]GTPγS Binding Assay in NG108-15 Cell Membranes (Delta Opioid)
Methods: NG108-15 cell membranes were purchased from Applied Cell Sciences (Rockville, Md.). A sample (8 mg/mL) of membrane protein suspended in 10 mM TRIS-HCl pH 7.2, 2 mM EDTA, 10% sucrose. Membranes were maintained at 4-8° C. A 1 mL volume of membranes was added into 10 mL cold binding assay buffer. The assay buffer contained 50 mM Tris, pH 7.6, 5 mM MgCl2, 100 mM NaCl, 1 mM DTT and 1 mM EGTA. The membrane suspension was homogenized twice with a Polytron, and centrifuged at 3000 rpm for 10 min. The supernatant was then centrifuged at 18,000 rpm for 20 min. Ten mL assay buffer was added into the pellet containing tube. The pellet and buffer were mixed with a Polytron.
Incubation procedure: The pellet membranes (75 μg/mL) were preincubated with SPA (10 mg/mL) at 25° C. for 45 min in the assay buffer. The SPA (5 mg/mL) coupled with membranes (37.5 μg/mL) was then incubated with 0.1 nM [^35S]GTPγS in the same Tris buffer containing 100 μM GDP in total volume of 200 μL. Increasing concentrations of receptor agonists were used to stimulate [^35S]-GTPγS binding. The basal binding was tested in the absence of agonists and non-specific binding was tested in the presence of 10 μM unlabeled GTPγS. The data were analyzed on a Packard Top Count.
% of Basal=(stimulated−non specific)*100/(basal−non specific).
(§3) EC50 values were calculated using GraphPad Prism.

[2] = biological target: T3, hMOR (CHO-hMOR cell membranes) (Homo sapiens, UniProt P35372); test: [35S]GTPγS binding assay in CHO-hMOR cell membranes; type: biochemical
T3 construct: host or cells: CHO cells expressing hMOR (purchased membranes)
Experimental: Functional Assay: [^35S]GTPγS Binding Assays in CHO-hMOR Cell Membranes
Methods: CHO-hMOR cell membranes were purchased from Receptor Biology, Inc. (Baltimore, Md.). About 10 mg/mL of membrane protein was suspended in 10 mM TRIS-HCl pH 7.2, 2 mM EDTA, 10% sucrose, and the suspension kept on ice. A 1 mL volume of membranes was added to 15 mL cold binding assay buffer containing 50 mM HEPES, pH 7.6, 5 mM MgCl2, 100 mM NaCl, 1 mM DTT and 1 mM EDTA. The membrane suspension was homogenized with a Polytron and centrifuged at 3,000 rpm for 10 min. The supernatant was then centrifuged at 18,000 rpm for 20 min. The pellet was resuspended in 10 mL assay buffer with a Polytron. The membranes were preincubated with wheat germ agglutinin coated SPA beads (Amersham) at 25° C. for 45 min in the assay buffer. The SPA bead (5 mg/mL) coupled membranes (10 μg/mL) were then incubated with 0.5 nM [^35S]GTPγS in the assay buffer. […] A range of concentrations of receptor agonist was used to stimulate [^35S]GTPγS binding. Both basal and non-specific binding was tested in the absence of agonist; non-specific binding determination included 10 μM unlabeled GTPγS.
Compounds were tested for function as antagonists by evaluating their potential to inhibit agonist-stimulated GTPγS binding. Radioactivity was quantified on a Packard TopCount. The following parameters were calculated:
as §3

delta opioid receptor = biological target: T4, delta opioid receptor (Rattus norvegicus, UniProt P33533); test: Rat brain delta opioid receptor binding assay; conditions: rat forebrain membranes, [3H]DPDPE or [3H]naltrindole, 25° C., 2.5 h
T4 construct: the forebrains were homogenized in Tris buffer in a Teflon®-glass homogenizer; from tissue; host or cells: forebrain of male Wistar rats (particulate membrane preparation)
Experimental: Rat Brain Delta Opioid Receptor Binding Assay
as §1
as §2, with “concentrations was” for “concentrations”

[3] = rMOR (Ki, nM): Rat mu opioid receptor binding constant
[4] = rDOR (Ki, nM): Rat delta opioid receptor binding constant
[5] = read-out: rMOR (Ki, nM): Rat mu opioid receptor binding constant
[6] = read-out: delta GTPγS binding EC50
[7] = CHO-hMOR cell membranes, read-out: mu GTPγS binding EC50
[8] = read-out: rDOR (Ki, nM): Rat delta opioid receptor binding constant

T2 sequence (P32300 whole entry): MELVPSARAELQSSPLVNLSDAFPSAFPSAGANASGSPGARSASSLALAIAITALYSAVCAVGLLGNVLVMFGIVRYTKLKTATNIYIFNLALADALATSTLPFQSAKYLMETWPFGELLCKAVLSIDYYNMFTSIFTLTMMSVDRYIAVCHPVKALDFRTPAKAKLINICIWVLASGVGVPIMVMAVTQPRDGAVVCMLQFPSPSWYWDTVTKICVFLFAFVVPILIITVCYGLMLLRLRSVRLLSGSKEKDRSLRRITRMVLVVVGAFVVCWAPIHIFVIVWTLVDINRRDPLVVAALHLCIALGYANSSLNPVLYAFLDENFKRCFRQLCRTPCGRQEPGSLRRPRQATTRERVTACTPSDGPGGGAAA
T4 sequence (P33533 whole entry): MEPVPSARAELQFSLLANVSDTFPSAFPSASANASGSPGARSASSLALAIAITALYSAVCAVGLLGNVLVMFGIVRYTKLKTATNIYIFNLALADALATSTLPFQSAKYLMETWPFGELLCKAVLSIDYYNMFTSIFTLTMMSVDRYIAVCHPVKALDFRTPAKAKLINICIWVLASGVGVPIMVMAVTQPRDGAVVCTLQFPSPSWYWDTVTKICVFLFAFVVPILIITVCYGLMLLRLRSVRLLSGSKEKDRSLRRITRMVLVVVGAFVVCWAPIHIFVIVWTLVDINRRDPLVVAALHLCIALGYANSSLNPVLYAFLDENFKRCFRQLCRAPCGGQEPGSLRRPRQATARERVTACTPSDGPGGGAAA
T3 sequence (P35372 whole entry): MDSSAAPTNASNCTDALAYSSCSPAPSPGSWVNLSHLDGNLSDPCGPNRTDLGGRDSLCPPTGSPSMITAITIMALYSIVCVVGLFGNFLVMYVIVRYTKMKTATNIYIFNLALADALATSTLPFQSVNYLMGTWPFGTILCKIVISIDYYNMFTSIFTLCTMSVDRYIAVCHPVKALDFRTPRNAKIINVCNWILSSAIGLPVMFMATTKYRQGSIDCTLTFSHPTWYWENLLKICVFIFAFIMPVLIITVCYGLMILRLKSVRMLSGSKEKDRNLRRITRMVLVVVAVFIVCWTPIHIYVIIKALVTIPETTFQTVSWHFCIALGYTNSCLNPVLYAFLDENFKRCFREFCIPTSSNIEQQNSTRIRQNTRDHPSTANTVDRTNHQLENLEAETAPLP
T1 sequence (P33535 whole entry): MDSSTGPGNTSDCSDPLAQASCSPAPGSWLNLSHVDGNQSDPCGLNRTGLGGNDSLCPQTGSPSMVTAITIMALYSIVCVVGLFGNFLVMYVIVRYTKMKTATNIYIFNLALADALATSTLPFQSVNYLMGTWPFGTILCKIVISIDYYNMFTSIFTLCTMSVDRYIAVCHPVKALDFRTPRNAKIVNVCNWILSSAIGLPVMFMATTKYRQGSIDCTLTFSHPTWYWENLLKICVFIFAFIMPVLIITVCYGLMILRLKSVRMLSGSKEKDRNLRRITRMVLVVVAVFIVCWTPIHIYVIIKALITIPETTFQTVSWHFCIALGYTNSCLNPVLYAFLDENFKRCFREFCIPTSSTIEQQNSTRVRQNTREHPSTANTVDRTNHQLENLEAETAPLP

Q: How did the Ki (mu opioid receptor; [3]) turn out when Oc1cccc2c1Oc1ccccc1C2=C1CC2CCC(C1)N2Cc1ccccn1 [Cpd 21, 9-(8-pyridin-2-ylmethyl-8-azabicyclo[3.2.1]oct-3-ylidene)-9H-xanthen-4-ol] was run?
A: 0.1 nM

Q: What about the EC50 ([1]; delta GTPγS binding EC50 (nM)) of the same molecule?
A: 21.8 nM

Q: And the EC50 [2]?
A: > 10000 nM

Q: What about the Ki (delta opioid receptor; [4]) of the same molecule?
A: 0.007 nM

Q: For Oc1cccc2c1Oc1ccccc1C2=C1CC2CCC(C1)N2Cc1ccncc1 [Cpd 22], which Ki (mu opioid receptor; [5]) is on record?
A: 358 nM

Q: And the EC50 [1, 6]?
A: 2720 nM

Q: And the EC50 [2, 7]?
A: > 10000 nM

Q: And the Ki (delta opioid receptor; [8])?
A: 0.97 nM

Q: For Oc1cc(CN2C3CCC2CC(=C2c4ccccc4Oc4c(O)cccc42)C3)ccn1 [Cpd 23], which Ki (mu opioid receptor; [5]) is on record?
A: 2.18 nM

Q: What about the EC50 [1, 6] of the same molecule?
A: 52.8 nM

Q: What about the EC50 [2, 7] of the same molecule?
A: 12400 nM

Q: What about the Ki (delta opioid receptor; [8]) of the same molecule?
A: 1.5 nM

Q: Oc1cccc2c1Oc1ccccc1C2=C1CC2CCC(C1)N2Cc1cccs1 [Cpd 24] was tested. Which Ki (mu opioid receptor; [5]) did it give?
A: 1.58 nM

Q: And the EC50 [1, 6]?
A: 6.05 nM

Q: And the EC50 [2, 7]?
A: > 10000 nM

Q: And the Ki (delta opioid receptor; [8])?
A: 0.046 nM

Q: Which results are given for Oc1cccc2c1Oc1ccccc1C2=C1CC2CCC(C1)N2Cc1ccoc1 [Cpd 25, 9-(8-Furan-3-ylmethyl-8-aza-bicyclo[3.2.1]oct-3-ylidene)-9H-xanthen-4-ol]?
A: Ki (mu opioid receptor; [3]): 0.56 nM; EC50 ([1]; delta GTPγS binding EC50 (nM)): 1.08 nM; EC50 [2]: 2810 nM; Ki (delta opioid receptor; [4]): 0.26 nM

Q: Which results are given for Oc1cccc2c1Oc1ccccc1C2=C1CC2CCC(C1)N2CC1CC1 [Cpd 26]?
A: Ki (mu opioid receptor; [5]): 65.9 nM; EC50 [1, 6]: 194 nM; EC50 [2, 7]: > 10000 nM; Ki (delta opioid receptor; [8]): 5.43 nM

Q: Which Ki (mu opioid receptor; [5]) does the source give for CC=C(C)CN1C2CCC1CC(=C1c3ccccc3Oc3c(O)cccc31)C2 [Cpd 27] here?
A: 2.03 nM

Q: And the EC50 [1, 6]?
A: 9.8 nM

Q: And the EC50 [2, 7]?
A: > 10000 nM

Q: And the Ki (delta opioid receptor; [8])?
A: 0.35 nM

Q: What does the source list for Oc1cccc2c1Oc1ccccc1C2=C1CC2CCC(C1)N2Cc1c[nH]c(-c2ccccc2)n1 [Cpd 28]?
A: Ki (mu opioid receptor; [5]): 58.5 nM; EC50 [1, 6]: 1380 nM; EC50 [2, 7]: > 10000 nM; Ki (delta opioid receptor; [8]): 192 nM

Q: Which Ki (mu opioid receptor; [5]) does the source give for Oc1cccc2c1Oc1ccccc1C2=C1CC2CCC(C1)N2CCc1ccccc1 [Cpd 30] here?
A: 27.7 nM

Q: What about the EC50 [1, 6] of the same molecule?
A: 2960 nM

Q: What about the EC50 [2, 7] of the same molecule?
A: > 10000 nM

Q: And the Ki (delta opioid receptor; [8])?
A: 63.5 nM

Q: Which results are given for Oc1cccc2c1Oc1ccccc1C2=C1CC2CCC(C1)N2Cc1cccnc1 [Cpd 31, 9-(8-pyridin-3-ylmethyl-8-azabicyclo[3.2.1]oct-3-ylidene)-9H-xanthen-4-ol]?
A: Ki (mu opioid receptor; [3]): 1.23 nM; EC50 [1, 6]: 134 nM; EC50 [2, 7]: 8090 nM; Ki (delta opioid receptor; [4]): 0.028 nM

Q: Oc1cccc2c1Oc1ccccc1C2=C1CC2CCC(C1)N2Cc1ccccc1 [Cpd 32, 9-(8-benzyl-8-azabicyclo[3.2.1]oct-3-ylidene)-9H-xanthen-4-ol] was tested. Which Ki (mu opioid receptor; [3]) did it give?
A: 0.29 nM

Q: What about the EC50 ([1]; delta GTPγS binding EC50 (nM)) of the same molecule?
A: 28.6 nM

Q: And the EC50 [2]?
A: > 10000 nM

Q: What about the Ki (delta opioid receptor; [4]) of the same molecule?
A: 0.023 nM

Q: With Oc1cccc2c1Oc1ccccc1C2=C1CC2CCC(C1)N2Cc1ncc[nH]1 [Cpd 34] as the molecule, how does the Ki (mu opioid receptor; [5]) read?
A: 0.53 nM

Q: What about the EC50 [1, 6] of the same molecule?
A: 3.33 nM

Q: What about the EC50 [2, 7] of the same molecule?
A: 1610 nM

Q: And the Ki (delta opioid receptor; [8])?
A: 0.028 nM
